Laboratory results reported in patent publication US10851073B2, “Protein tyrosine phosphatase inhibitors and methods of use thereof” (Calico Life Sciences LLC, priority 2019, dated 2020).

How the values were obtained:
[1] = biological target: T1, His tagged PTPN2 (TC45) protein (Homo sapiens, UniProt P17706); experiment: Mobility shift assay used to determine potency of PTPN2 inhibitors; format: biochemical; conditions: enzyme 0.5 nM, substrate 2 μM; read-out: PTPN2 MSA IC50
T1 construct: made in house
T1 sequence (P17706 with tags, fused parts or gaps isoform P17706-2): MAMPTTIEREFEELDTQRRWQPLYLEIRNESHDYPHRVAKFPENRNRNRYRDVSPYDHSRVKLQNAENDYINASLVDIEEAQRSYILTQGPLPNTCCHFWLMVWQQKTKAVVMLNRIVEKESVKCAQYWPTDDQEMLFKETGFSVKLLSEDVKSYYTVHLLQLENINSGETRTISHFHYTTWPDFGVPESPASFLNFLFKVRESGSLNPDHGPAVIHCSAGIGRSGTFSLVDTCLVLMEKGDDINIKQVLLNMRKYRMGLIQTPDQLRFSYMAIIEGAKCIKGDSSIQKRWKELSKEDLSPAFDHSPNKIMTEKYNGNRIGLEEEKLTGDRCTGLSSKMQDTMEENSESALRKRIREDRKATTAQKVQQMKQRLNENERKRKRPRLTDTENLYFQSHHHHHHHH
How it was run: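 Enzyme (0.5 nM) preincubated with compound (12-point, 1:3 dilution) 10 min at room temperature in 50 mM HEPES pH 7.5, 1 mM EGTA, 10 mM EDTA, 0.01% Tween 20, 2 mM DTT; OG488-labelled phospho-insulin-receptor peptide substrate (2 μM) added for 10 min, then quenched. Microfluidic mobility shift (ex 488/em 530 nm) gave % conversion; IC50 from % inhibition.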

[2] = biological target: T2, His tagged full-length PTPN1 protein (Homo sapiens, UniProt P18031); experiment: Mobility shift assay (MSA) used to determine potency of PTPN1 inhibitors; format: biochemical; conditions: enzyme 0.5 nM, substrate 2 μM
T2 construct: made in house
T2 sequence (P18031 with tags, fused parts or gaps): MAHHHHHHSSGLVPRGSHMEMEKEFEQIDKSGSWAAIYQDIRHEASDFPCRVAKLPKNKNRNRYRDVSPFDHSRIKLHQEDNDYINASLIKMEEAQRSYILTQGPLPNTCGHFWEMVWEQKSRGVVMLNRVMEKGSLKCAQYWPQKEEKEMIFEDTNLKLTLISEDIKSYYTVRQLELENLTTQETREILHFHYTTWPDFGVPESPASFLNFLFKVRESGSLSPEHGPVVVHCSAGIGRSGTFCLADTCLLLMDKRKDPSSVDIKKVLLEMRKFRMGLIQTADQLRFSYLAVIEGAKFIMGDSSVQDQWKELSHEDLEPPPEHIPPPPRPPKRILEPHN
How it was run: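 Full-length His-tagged human PTPN1 (0.5 nM) was preincubated 10 min at room temperature with compound (12-point, 1:3 dilution) in HEPES pH 7.5 buffer with EGTA, EDTA, Tween 20 and DTT. A 2 μM fluorescent phospho-insulin receptor peptide was then added for 10 min before quench. Mobility-shift % conversion gave % inhibition and IC50.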

[3] = tested on: B16F10 mouse melanoma cells; experiment: B16F10 IFNγ-induced cellular growth inhibition assay; format: cell-based; conditions: B16-F10, with 0.5 ng/mL IFNγ, read-out: B16F10 GI IC50
How it was run: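 B16F10 cells grown in DMEM+10% FBS, with or without 0.5 ng/mL final mouse IFNγ, and dosed in triplicate at 100 μM to 0.001 μM final (0.1% DMSO). Confluence imaged every 6 h for 5 days; percent growth inhibition versus DMSO/with-IFNγ control taken once DMSO/no-IFNγ wells exceeded 95% confluence, giving IC50.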

[4] = tested on: Pan T cells isolated from C57BL6 splenocytes; experiment: T cell function assays (IFNγ and TNFα in supernatants); format: cell-based, mouse; conditions: 0.3 μM compound, 3 days
Protocol: Example 231: T Cell Function Assays Pan T cells were isolated from C57BL6 splenocytes using a MACS Pan T cell isolation kit II (Miltenyi Biotec, Auburn, Calif.) according to the manufacturer's instructions. Isolated T cells (200,000 cells/well in a 96 well flat-bottom plate) were cultured in RPMI 1640 supplemented with 10% FBS, […] 2-mercaptoethanol, 100 U/mL penicillin, and 100 μg/mL streptomycin, and incubated with 0.3 μM compound or DMSO in duplicates. After 1 hour, mouse T cell activator CD3/CD28 Dynabeads (ThermoFisher Scientific, Waltham, Mass.) were added at a 1:5 beads to cells ratio to stimulate the T cells for 3 days. T cells with or without compound were incubated in the absence of T cell activator beads to evaluate if compounds nonspecifically stimulate the T cells. After 3 days of stimulation, supernatants were collected and IFNγ and TNFα in supernatants were assessed using an MSD V-plex assay (Meso Scale Discovery, Rockville, Md.).

SMILES | IC50 [1] | IC50 [2] | IC50 [3] | IFNγ [pg/mL] anti-CD3/CD28 ([4]; anti-CD3/CD28 stimulation) | TNFα [pg/mL] anti-CD3/CD28 ([4]; anti-CD3/CD28 stimulation) | IFNγ [pg/mL] no stimulation ([4]; no stimulation) | TNFα [pg/mL] no stimulation ([4]; no stimulation)
O=C1CN(c2c(O)cc3c(c2F)CC(NCCC2CCCC2)CC3)S(=O)(=O)N1 (stereo not shown) [Compound 178, 5-{7-[(2-cyclopentylethyl)amino]-1-fluoro-3-hydroxy-5,6,7,8-tetrahydronaphthalen-2-yl}-1λ^6,2,5-thiadiazolidine-1,1,3-trione] | < 0.001 µM | 0.001 to 0.01 µM | < 1 µM |  |  |  | 
O=C1CN(c2c(O)cc3c(c2F)CC(NCCO)CC3)S(=O)(=O)N1 (stereo not shown) [Compound 180, 5-{1-fluoro-3-hydroxy-7-[(2-hydroxyethyl)amino]-5,6,7,8-tetrahydronaphthalen-2-yl}-1λ^6,2,5-thiadiazolidine-1,1,3-trione] | 0.01 to 0.1 µM | > 0.1 µM | 1 to 10 µM |  |  |  | 
O=C1CN(c2c(O)cc3c(c2F)CC(NCCC2CCC2)CC3)S(=O)(=O)N1 (stereo not shown) [Compound 185, 5-{7-[(2-cyclobutylethyl)amino]-1-fluoro-3-hydroxy-5,6,7,8-tetrahydronaphthalen-2-yl}-1λ^6,2,5-thiadiazolidine-1,1,3-trione] | 0.001 to 0.01 µM | 0.001 to 0.01 µM | < 1 µM |  |  |  | 
CC(C)C(O)CNC1CCc2cc(O)c(N3CC(=O)NS3(=O)=O)c(F)c2C1 (stereo not shown) [Compound 187, 5-{1-fluoro-3-hydroxy-7-[(2-hydroxy-3-methylbutyl)amino]-5,6,7,8-tetrahydronaphthalen-2-yl}-1λ^6,2,5-thiadiazolidine-1,1,3-trione] | 0.001 to 0.01 µM | 0.001 to 0.01 µM | < 1 µM |  |  |  | 
O=C1CN(c2c(O)cc3c(c2F)CC(NCC(O)C2CC2)CC3)S(=O)(=O)N1 (stereo not shown) [Compound 188, 5-{7-[(2-cyclopropyl-2-hydroxyethyl)amino]-1-fluoro-3-hydroxy-5,6,7,8-tetrahydronaphthalen-2-yl}-1λ^6,2,5-thiadiazolidine-1,1,3-trione] | 0.01 to 0.1 µM | 0.01 to 0.1 µM | < 1 µM |  |  |  | 
C[Si](C)(C)CCCNC1CCc2cc(O)c(N3CC(=O)NS3(=O)=O)c(F)c2C1 (stereo not shown) [Compound 189, 5-(1-fluoro-3-hydroxy-7-{[3-(trimethylsilyl)propyl]amino}-5,6,7,8-tetrahydronaphthalen-2-yl)-1λ^6,2,5-thiadiazolidine-1,1,3-trione] | 0.001 to 0.01 µM | > 0.1 µM | 1 to 10 µM |  |  |  | 
C[Si](C)(O)CCCNC1CCc2cc(O)c(N3CC(=O)NS3(=O)=O)c(F)c2C1 (stereo not shown) [Compound 190, 5-[1-fluoro-3-hydroxy-7-({3-[hydroxy(dimethyl)silyl]propyl}amino)-5,6,7,8-tetrahydronaphthalen-2-yl]-1λ^6,2,5-thiadiazolidine-1,1,3-trione] | 0.001 to 0.01 µM | 0.01 to 0.1 µM | 1 to 10 µM |  |  |  | 
CC(C)(O)CCOC1CCc2cc(O)c(N3CC(=O)NS3(=O)=O)c(F)c2C1 (stereo not shown) [Compound 197, 5-[1-fluoro-3-hydroxy-7-(3-hydroxy-3-methylbutoxy)-5,6,7,8-tetrahydronaphthalen-2-yl]-1λ^6,2,5-thiadiazolidine-1,1,3-trione] | 0.01 to 0.1 µM | 0.01 to 0.1 µM | 1 to 10 µM |  |  |  | 
CCC(C)CCN[C@@H]1CCc2cc(O)c(N3CC(=O)NS3(=O)=O)c(F)c2C1 (stereo partly drawn) [Compound 203, 5-{(7R)-1-fluoro-3-hydroxy-7-[(3-methylpentyl)amino]-5,6,7,8-tetrahydronaphthalen-2-yl}-1λ^6,2,5-thiadiazolidine-1,1,3-trione] | < 0.001 µM | 0.001 to 0.01 µM | < 1 µM |  |  |  | 
CCC(CC)CCN[C@@H]1CCc2cc(O)c(N3CC(=O)NS3(=O)=O)c(F)c2C1 [Compound 204, 5-{(7R)-7-[(3-ethylpentyl)amino]-1-fluoro-3-hydroxy-5,6,7,8-tetrahydronaphthalen-2-yl}-1λ^6,2,5-thiadiazolidine-1,1,3-trione] |  |  |  | 148.8 pg/mL | 105.4 pg/mL | 1.8 pg/mL | 1.1 pg/mL
O=C1CN(c2c(O)cc3c(c2F)CC(NCCC(F)F)CC3)S(=O)(=O)N1 (stereo not shown) [Compound 223, 5-{7-[(3,3-difluoropropyl)amino]-1-fluoro-3-hydroxy-5,6,7,8-tetrahydronaphthalen-2-yl}-1λ^6,2,5-thiadiazolidine-1,1,3-trione] | 0.01 to 0.1 µM | 0.001 to 0.01 µM | < 1 µM |  |  |  | 
O=C1CN(c2c(O)cc3c(c2F)CN(CCC2CC4CCC2O4)CC3)S(=O)(=O)N1 (stereo not shown) [Compound 225, 5-{8-fluoro-6-hydroxy-2-[2-(7-oxabicyclo[2.2.1]heptan-2-yl)ethyl]-1,2,3,4-tetrahydroisoquinolin-7-yl}-1λ^6,2,5-thiadiazolidine-1,1,3-trione] | 0.001 to 0.01 µM | 0.01 to 0.1 µM | 1 to 10 µM |  |  |  | 
O=C1CN(c2c(O)cc3c(c2F)CC(NCC[C@H]2C[C@@H](OC(F)(F)F)C2)CC3)S(=O)(=O)N1 (stereo partly shown) [Compound 234, 5-[1-fluoro-3-hydroxy-7-({2-[(1s,3r)-3-(trifluoromethoxy)cyclobutyl]ethyl}amino)-5,6,7,8-tetrahydronaphthalen-2-yl]-1λ^6,2,5-thiadiazolidine-1,1,3-trione] | 0.01 to 0.1 µM | 0.001 to 0.01 µM | 1 to 10 µM |  |  |  | 
O=C1CN(c2c(O)cc3c(c2F)CC(N[C@H]2C[C@@H](OC(F)(F)F)C2)CC3)S(=O)(=O)N1 (stereo partly shown) [Compound 235, 5-(1-fluoro-3-hydroxy-7-{[(1s,3s)-3-(trifluoromethoxy)cyclobutyl]amino}-5,6,7,8-tetrahydronaphthalen-2-yl)-1λ^6,2,5-thiadiazolidine-1,1,3-trione] | 0.01 to 0.1 µM | 0.01 to 0.1 µM | 1 to 10 µM |  |  |  | 
CCCC1(NNC(=O)c2ccccc2)CCc2cc(O)c(N3CC(=O)NS3(=O)=O)c(F)c2C1 (stereo not shown) [Compound 241, N′-[8-fluoro-6-hydroxy-2-propyl-7-(1,1,4-trioxo-1λ^6,2,5-thiadiazolidin-2-yl)-1,2,3,4-tetrahydronaphthalen-2-yl]benzohydrazide] | 0.01 to 0.1 µM | 0.01 to 0.1 µM | 10 to 100 µM |  |  |  | 
CCCC1(N)CCc2cc(O)c(N3CC(=O)NS3(=O)=O)c(F)c2C1 (stereo not shown) [Compound 255, 5-(7-amino-1-fluoro-3-hydroxy-7-propyl-5,6,7,8-tetrahydronaphthalen-2-yl)-1λ^6,2,5-thiadiazolidine-1,1,3-trione] | > 0.1 µM | 0.01 to 0.1 µM | 1 to 10 µM |  |  |  | 
CC(C)CCNCC1Cc2cc(O)c(N3CC(=O)NS3(=O)=O)c(F)c2C1 (stereo not shown) [Compound 268, 5-(4-fluoro-6-hydroxy-2-{[(3-methylbutyl)amino]methyl}-2,3-dihydro-1H-inden-5-yl)-1λ^6,2,5-thiadiazolidine-1,1,3-trione] | 0.01 to 0.1 µM | 0.01 to 0.1 µM | 1 to 10 µM |  |  |  | 
CC(C)CCN(CCC(C)C)CC1Cc2cc(O)c(N3CC(=O)NS3(=O)=O)c(F)c2C1 (stereo not shown) [Compound 269, 5-(2-{[bis(3-methylbutyl)amino]methyl}-4-fluoro-6-hydroxy-2,3-dihydro-1H-inden-5-yl)-1λ^6,2,5-thiadiazolidine-1,1,3-trione] | 0.001 to 0.01 µM | 0.001 to 0.01 µM | 10 to 100 µM |  |  |  | 
CC1(C)CC1CCCN1CCc2cc(O)c(N3CC(=O)NS3(=O)=O)c(F)c2C1 (stereo not shown) [Compound 288, 5-{2-[3-(2,2-dimethylcyclopropyl)propyl]-8-fluoro-6-hydroxy-1,2,3,4-tetrahydroisoquinolin-7-yl}-1λ^6,2,5-thiadiazolidine-1,1,3-trione] | 0.01 to 0.1 µM | 0.001 to 0.01 µM | 1 to 10 µM |  |  |  | 
